Measurements from US20220378786A1, “METHODS OF DEFINING FUNCTIONAL CHANGE AND SLOWING PROGRESSION IN CHRONIC LIVER DISEASE” (priority 2021, published 2022).

System: hepatic function and portal-systemic shunting in subjects with CLD
Assay: HepQuant SHUNT test (DSI and SHUNT %) relative to concomitant drug therapy in the SHUNT-V clinical study
Assay type: in vivo, human
Conditions: for Coefficient (Δ DSI score): multi-variable regression analysis of prescribed medications, Base DSI 27.0682; for ΔDSI: univariable regression analysis, 270 SHUNT-V subjects with CLD, on drug vs not on drug, lower DSI = better hepatic function
Description: For example, a HepQuant® cholate liver function test (HepQuant, LLC) can be used to determine the presence and severity of liver diseases. A HepQuant® test can be a HepQuant® DSI test, HepQuant® SHUNT test or a HepQuant® STAT test. […] The term “SHUNT test” refers to a previously disclosed QLFT (quantitative liver function test) used as a comprehensive assessment of hepatic blood flow and liver function. The SHUNT test may be used to determine plasma clearance of orally and intravenously administered distinguishable cholic acids in subjects with and without chronic liver disease. SHUNT fraction or percent quantifies the spillover of the PO d4-cholate into the systemic circulation from the ratio of the clearance of the intravenously administered 13C-cholate to the clearance of the orally administered d4-cholate. In the SHUNT test, at least 5 blood samples are analyzed which have been drawn from a patient at intervals over a period of about 90 minutes after oral and intravenous administration of differentiable cholates. The SHUNT test is disclosed in Everson et al., U.S. Pat. […] The “SHUNT test value” refers to a number (in %). The term “SHUNT %” represents a quantitative measurement of portal-systemic shunting. SHUNT % is a measurement of the percentage of spillover of the orally administered d4-cholate. The first-pass hepatic elimination of cholate in percent of orally administered cholate is defined as (100%—SHUNT). Analysis of samples for stable isotopically labeled cholates is performed by, e.g., GC-MS, following sample derivitization, or LC-MS, without sample derivitization, or LC-MS/MS, or MS/MS. The ratio of the AUCs of orally to intravenously administered cholic acid, corrected for administered doses, defines cholate shunt. The cholate shunt can be calculated using the formula: AUCoral/AUCiv×Doseiv/Doseoral×100%, wherein AUCoral is the area under the curve of the serum concentrations of the orally adminstered cholic acid and AUCiv is the area under the curve of the intravenously administered cholic acid. The SHUNT test allows measurement of first-pass hepatic elimination of bile acids from the portal circulation. The term “DSI test” refers to a cholate Disease Severity Index test which is derived from one or more liver function test results based on hepatic blood flow. The DSI score is a function of the sum of cholate clearances from systemic and portal circulations adjusted to disease severity ranging from healthy subjects to end stage liver disease. DSI is a score without units representing a quantitative measurement of liver function. A disease severity index (DSI) value may be obtained in a patient by a method comprising (a) obtaining one or more liver function test values in a patient having or at risk of a chronic liver disease, wherein the one or more liver function test values are obtained from one or more liver function tests selected from the group consisting of SHUNT, portal hepatic filtration rate (portal HFR), and systemic hepatic filtration rate (systemic HFR); and (b) employing a disease severity index equation (DSI equation) to obtain a DSI value in the patient, wherein the DSI equation comprises one or more terms and a constant to obtain the DSI value, wherein at least one term of the DSI equation independently represents a liver function test value in the patient, or a mathematically transformed liver function test value in the patient from step; and the at least one term of the DSI equation is multiplied by a coefficient specific to the liver function test. DSI is an index, or score, that encompasses the cholate clearances from both systemic and portal circulations. DSI has a range from 0 (healthy) to 50 (severe end-stage disease) and is calculated from both HFRs. […] DSI test methods and equations are disclosed in U.S. Pat. Nos. 9,091,701, 9,759,731, 10,520,517, each of which is incorporated herein by reference in its entirety. Additional DSI equations have been developed and are provided herein.

[1] = ON-OFF drug, subset of 130 subjects taking anti-diabetic drug therapies (Table 6, FIG. 18)
[2] = multi-variable regression with statins, metformin, diabetes diagnosis and NASH diagnosis

In the case of `CN(C)C(=N)N=C(N)N` [Metformin, metformin], the “mean difference in DSI” value [1] is reported as −2.4, the “mean difference in SHUNT” value [1] is reported as −7.4% and the “Coefficient (Δ DSI score)” value is reported as −2.2637. For the same molecule, the “Decline in DSI” value [2] was −2.4337, the “Decline in SHUNT %” value [2] was −5.9% and the “Resultant DSI” value (multi-variable regression, Base DSI 27.0682 plus coefficients, cumulative down the table (metformin line includes the statin coefficient)) was 21.55. The “% Reduction in DSI” value (multi-variable regression, relative to Base DSI 27.0682, cumulative down the table (metformin line includes statins)) was −20.4% and the ΔDSI was −4.1777.

`CCc1ccc(CCOc2ccc(CC3SC(=O)NC3=O)cc2)nc1` (centres unmarked) [Pioglitazone] was tested, and the “Coefficient (Δ DSI score)” value was 0.2725 and the ΔDSI was −2.4995.

“Insulin: insulin, anti-diabetic drug therapy” was tested, and the “Coefficient (Δ DSI score)” value was −0.7947 and the ΔDSI was −2.746.

Vitamin E was tested, and the “Coefficient (Δ DSI score)” value was −1.6505 and the ΔDSI was −2.0475.
